Reference: ChEMBL document CHEMBL3885881, “DrugMatrix”

Species: Rattus norvegicus
Assay: DrugMatrix - Regimen: Daily Repeat
Assay type: toxicity, organism-based, Sprague-Dawley
Design: regimen Daily Repeat, gender Male, age 6-8 weeks
Settings: in vivo, po, route oral GAVAGE, […]; for ABSOLUTE BASOPHIL / ABSOLUTE EOSINOPHIL / ABSOLUTE LYMPHOCYTE / ABSOLUTE MONOCYTE / ABSOLUTE SEGMENTED NEUTROPHIL / BASOPHIL / EOSINOPHIL / ERYTHROCYTE COUNT / HEMATOCRIT / HEMOGLOBIN / LEUKOCYTE COUNT / LYMPHOCYTE / MEAN CORPUSCULAR HEMOGLOBIN / MEAN CORPUSCULAR HEMOGLOBIN CONCENTRATION / MEAN CORPUSCULAR VOLUME / MONOCYTE / NEUTROPHIL / NUCLEATED RED BLOOD CELLS / PLATELET COUNT: tissue Blood; for ALANINE AMINOTRANSFERASE / ALBUMIN / ALKALINE PHOSPHATASE / ASPARTATE AMINOTRANSFERASE / BLOOD UREA NITROGEN / CARBON DIOXIDE / CHLORIDE / CHOLESTEROL / CREATINE PHOSPHOKINASE / CREATININE / GLUCOSE / LACTATE DEHYDROGENASE / LIPASE / PHOSPHORUS / POTASSIUM / SODIUM / TOTAL BILIRUBIN / TOTAL PROTEIN / URIC ACID: tissue Plasma
[1] = 250 mg/kg, 72 h, dose level Low, time 3 day
[2] = 250 mg/kg, 120 h, dose level Low, time 5 day
[3] = 930 mg/kg, 72 h, dose level High, time 3 day
[4] = 930 mg/kg, 120 h, dose level High, time 5 day

## CC12CCC(CC1)C(C)(C)O2 [EUCALYPTOL]
[1]
  ABSOLUTE BASOPHIL: 0 CELLS/uL
  ABSOLUTE EOSINOPHIL: 0 CELLS/uL
  ABSOLUTE LYMPHOCYTE: 12865.33 CELLS/uL
  ABSOLUTE MONOCYTE: 104 CELLS/uL
  ABSOLUTE SEGMENTED NEUTROPHIL: 1797.33 CELLS/uL
  BASOPHIL: 0%
  EOSINOPHIL: 0%
  ERYTHROCYTE COUNT: 5.22 x10E6/uL
  HEMATOCRIT: 32.73%
  HEMOGLOBIN: 12.97 G/DL
  LEUKOCYTE COUNT: 14.77 x10E3/uL
  LYMPHOCYTE: 87.33%
  MEAN CORPUSCULAR HEMOGLOBIN: 24.83 pg
  MEAN CORPUSCULAR HEMOGLOBIN CONCENTRATION: 39.63 G/DL
  MEAN CORPUSCULAR VOLUME: 62.77 fL
  MONOCYTE: 0.67%
  NEUTROPHIL: 12%
  NUCLEATED RED BLOOD CELLS: 0 /100WBC
  PLATELET COUNT: 1143.67 x10E3/uL
  ALANINE AMINOTRANSFERASE: 68.67 u/L
  ALBUMIN: 4.03 G/DL
  ALKALINE PHOSPHATASE: 413.33 u/L
  ASPARTATE AMINOTRANSFERASE: 95.33 u/L
  BLOOD UREA NITROGEN: 12.33 mg/dL
  CARBON DIOXIDE: 24 mmol/L
  CHLORIDE: 103.67 MEQ/L
  CHOLESTEROL: 84.67 mg/dL
  CREATINE PHOSPHOKINASE: 439.67 u/L
  CREATININE: 0.17 mg/dL
  GLUCOSE: 160.33 mg/dL
  LACTATE DEHYDROGENASE: 154.67 u/L
  LIPASE: 10.33 u/L
  PHOSPHORUS: 12.5 mg/dL
  POTASSIUM: 6.64 MEQ/L
  SODIUM: 145.33 MEQ/L
  TOTAL BILIRUBIN: 0.2 mg/dL
  TOTAL PROTEIN: 5.53 G/DL
  URIC ACID: 1.43 mg/dL
[2]
  ABSOLUTE BASOPHIL: 0 CELLS/uL
  ABSOLUTE EOSINOPHIL: 0 CELLS/uL
  ABSOLUTE LYMPHOCYTE: 15020.67 CELLS/uL
  ABSOLUTE MONOCYTE: 301.67 CELLS/uL
  ABSOLUTE SEGMENTED NEUTROPHIL: 1277.67 CELLS/uL
  BASOPHIL: 0%
  EOSINOPHIL: 0%
  ERYTHROCYTE COUNT: 5.46 x10E6/uL
  HEMATOCRIT: 34.57%
  HEMOGLOBIN: 14.17 G/DL
  LEUKOCYTE COUNT: 16.6 x10E3/uL
  LYMPHOCYTE: 90.33%
  MEAN CORPUSCULAR HEMOGLOBIN: 25.97 pg
  MEAN CORPUSCULAR HEMOGLOBIN CONCENTRATION: 40.97 G/DL
  MEAN CORPUSCULAR VOLUME: 63.33 fL
  MONOCYTE: 1.67%
  NEUTROPHIL: 8%
  NUCLEATED RED BLOOD CELLS: 0.67 /100WBC
  PLATELET COUNT: 1304.67 x10E3/uL
  ALANINE AMINOTRANSFERASE: 61 u/L
  ALBUMIN: 4.2 G/DL
  ALKALINE PHOSPHATASE: 377.33 u/L
  ASPARTATE AMINOTRANSFERASE: 78.33 u/L
  BLOOD UREA NITROGEN: 16 mg/dL
  CARBON DIOXIDE: 24.33 mmol/L
  CHLORIDE: 103 MEQ/L
  CHOLESTEROL: 71 mg/dL
  CREATINE PHOSPHOKINASE: 231.33 u/L
  CREATININE: 0.17 mg/dL
  GLUCOSE: 153.67 mg/dL
  LACTATE DEHYDROGENASE: 170.67 u/L
  LIPASE: 10 u/L
  PHOSPHORUS: 12.6 mg/dL
  POTASSIUM: 6.77 MEQ/L
  SODIUM: 146.3 MEQ/L
  TOTAL BILIRUBIN: 0.13 mg/dL
  TOTAL PROTEIN: 5.97 G/DL
  URIC ACID: 1.53 mg/dL
[3]
  ABSOLUTE BASOPHIL: 0 CELLS/uL
  ABSOLUTE EOSINOPHIL: 0 CELLS/uL
  ABSOLUTE LYMPHOCYTE: 15782.67 CELLS/uL
  ABSOLUTE MONOCYTE: 121.67 CELLS/uL
  ABSOLUTE SEGMENTED NEUTROPHIL: 2129 CELLS/uL
  BASOPHIL: 0%
  EOSINOPHIL: 0%
  ERYTHROCYTE COUNT: 5.63 x10E6/uL
  HEMATOCRIT: 35.83%
  HEMOGLOBIN: 14.2 G/DL
  LEUKOCYTE COUNT: 18.03 x10E3/uL
  LYMPHOCYTE: 87.67%
  MEAN CORPUSCULAR HEMOGLOBIN: 25.3 pg
  MEAN CORPUSCULAR HEMOGLOBIN CONCENTRATION: 39.67 G/DL
  MEAN CORPUSCULAR VOLUME: 63.73 fL
  MONOCYTE: 0.67%
  NEUTROPHIL: 11.67%
  NUCLEATED RED BLOOD CELLS: 0 /100WBC
  PLATELET COUNT: 1268 x10E3/uL
  ALANINE AMINOTRANSFERASE: 85.33 u/L
  ALBUMIN: 4.33 G/DL
  ALKALINE PHOSPHATASE: 424.33 u/L
  ASPARTATE AMINOTRANSFERASE: 90.67 u/L
  BLOOD UREA NITROGEN: 16.67 mg/dL
  CARBON DIOXIDE: 23.33 mmol/L
  CHLORIDE: 103 MEQ/L
  CHOLESTEROL: 84.33 mg/dL
  CREATINE PHOSPHOKINASE: 211.67 u/L
  CREATININE: 0.24 mg/dL
  GLUCOSE: 153.67 mg/dL
  LACTATE DEHYDROGENASE: 86.67 u/L
  LIPASE: 11.67 u/L
  PHOSPHORUS: 12.2 mg/dL
  POTASSIUM: 6.76 MEQ/L
  SODIUM: 146.43 MEQ/L
  TOTAL BILIRUBIN: 0.13 mg/dL
  TOTAL PROTEIN: 6.03 G/DL
  URIC ACID: 1.67 mg/dL
[4]
  ABSOLUTE BASOPHIL: 0 CELLS/uL
  ABSOLUTE EOSINOPHIL: 0 CELLS/uL
  ABSOLUTE LYMPHOCYTE: 18083.67 CELLS/uL
  ABSOLUTE MONOCYTE: 256.67 CELLS/uL
  ABSOLUTE SEGMENTED NEUTROPHIL: 1226.33 CELLS/uL
  BASOPHIL: 0%
  EOSINOPHIL: 0%
  ERYTHROCYTE COUNT: 5.66 x10E6/uL
  HEMATOCRIT: 35.63%
  HEMOGLOBIN: 14.2 G/DL
  LEUKOCYTE COUNT: 19.57 x10E3/uL
  LYMPHOCYTE: 92.33%
  MEAN CORPUSCULAR HEMOGLOBIN: 25.1 pg
  MEAN CORPUSCULAR HEMOGLOBIN CONCENTRATION: 39.87 G/DL
  MEAN CORPUSCULAR VOLUME: 62.97 fL
  MONOCYTE: 1.33%
  NEUTROPHIL: 6.33%
  NUCLEATED RED BLOOD CELLS: 0 /100WBC
  PLATELET COUNT: 1326.67 x10E3/uL
  ALANINE AMINOTRANSFERASE: 58 u/L
  ALBUMIN: 4.17 G/DL
  ALKALINE PHOSPHATASE: 302.33 u/L
  ASPARTATE AMINOTRANSFERASE: 76.33 u/L
  BLOOD UREA NITROGEN: 14 mg/dL
  CARBON DIOXIDE: 26.33 mmol/L
  CHLORIDE: 101.67 MEQ/L
  CHOLESTEROL: 73 mg/dL
  CREATINE PHOSPHOKINASE: 275 u/L
  CREATININE: 0.22 mg/dL
  GLUCOSE: 158 mg/dL
  LACTATE DEHYDROGENASE: 114.33 u/L
  LIPASE: 11 u/L
  PHOSPHORUS: 11.8 mg/dL
  POTASSIUM: 6.84 MEQ/L
  SODIUM: 145.5 MEQ/L
  TOTAL BILIRUBIN: 0.23 mg/dL
  TOTAL PROTEIN: 5.97 G/DL
  URIC ACID: 1.8 mg/dL
